According to ChEMBL document CHEMBL4834430, “Design and Structure-Activity Relationships of Isothiocyanates as Potent and Selective N-Acylethanolamine-Hydrolyzing Acid Amidase Inhibitors” (J Med Chem, 2021):
Calls of active or inactive are those of the source. The rule behind the calls is not given here.

Tests used:
[1] = biological target: T1, N-acylethanolamine-hydrolyzing acid amidase (Homo sapiens, UniProt Q02083); assay: Inhibition of human NAAA using N-(4-methyl coumarin)-palmitamide as fluorogenic substrate preincubated for 90 mins followed by substrate addition by fluorescence assay
T1 sequence (Q02083 whole entry): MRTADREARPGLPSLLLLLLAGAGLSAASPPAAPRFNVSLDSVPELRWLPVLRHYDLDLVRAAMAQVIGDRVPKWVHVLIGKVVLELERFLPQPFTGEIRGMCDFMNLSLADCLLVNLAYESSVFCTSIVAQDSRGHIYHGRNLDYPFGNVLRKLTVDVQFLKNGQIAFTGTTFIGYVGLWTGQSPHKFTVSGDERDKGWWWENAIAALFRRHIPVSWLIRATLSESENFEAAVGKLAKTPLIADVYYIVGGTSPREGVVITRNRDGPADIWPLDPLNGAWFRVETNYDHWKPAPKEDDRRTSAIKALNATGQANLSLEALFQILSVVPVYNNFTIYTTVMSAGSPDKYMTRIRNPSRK

[2] = Drug concentration in brain of CD-1 mouse at 2 mg/kg, iv administered as single cassette dose measured after 15 mins; format: ADME, organism-based; conditions: read-out: Ct
[3] = biological target: T2, N-acylethanolamine-hydrolyzing acid amidase (Homo sapiens) (UniProt Q02083); assay: Covalent inhibition of human NAAA assessed as ratio of Kinact/Ki
T2 sequence (whole entry): T1 sequence (Q02083 whole entry)

[4] = Drug concentration in plasma of CD-1 mouse at 2 mg/kg, iv administered as single cassette dose measured after 15 mins; format: ADME, organism-based
[5] = Drug concentration in plasma of CD-1 mouse at 8 mg/kg, po administered as single cassette dose measured after 30 mins; format: ADME, organism-based
[6] = Drug concentration in plasma of CD-1 mouse at 8 mg/kg, po administered as single cassette dose measured after 60 mins; format: ADME, organism-based
[7] = Half life in human liver microsomes at 1 uM in presence of NADPH by LC-MS/MS analysis; format: ADME, Microsome
[8] = Half life in rat liver microsomes at 1 uM in presence of NADPH by LC-MS/MS analysis; format: ADME, Microsome
[9] = Half life in mouse liver microsomes at 1 uM in presence of NADPH by LC-MS/MS analysis; format: ADME, Microsome
[10] = biological target: T3, Cathepsin K (Homo sapiens) (UniProt P43235); assay: Inhibition of recombinant human Cathepsin K at 1 uM using Z-Phe-Arg-AMC as fluorogenic substrate preincubated for 120 mins followed by substrate addition by fluorescence assay
T3 sequence (whole entry): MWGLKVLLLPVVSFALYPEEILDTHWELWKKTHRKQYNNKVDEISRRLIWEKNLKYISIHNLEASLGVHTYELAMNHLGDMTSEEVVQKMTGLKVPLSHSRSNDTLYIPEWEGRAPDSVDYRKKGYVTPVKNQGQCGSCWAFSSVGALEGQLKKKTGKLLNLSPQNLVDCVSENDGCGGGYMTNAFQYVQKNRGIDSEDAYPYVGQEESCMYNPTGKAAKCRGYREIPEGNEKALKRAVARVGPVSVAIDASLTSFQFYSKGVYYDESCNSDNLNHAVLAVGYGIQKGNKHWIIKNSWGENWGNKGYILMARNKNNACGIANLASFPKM

[11] = biological target: T3, Cathepsin K (Homo sapiens); assay: Inhibition of recombinant human Cathepsin K at 100 nM using Z-Phe-Arg-AMC as fluorogenic substrate preincubated for 120 mins followed by substrate addition by fluorescence assay relative to control

S=C=NC1CN(CCCCCCc2ccccc2)C1
IC50 [1]: 8.3 nM

CCOc1ccc(-c2ccc(CO[C@H]3C[C@@H](N=C=S)C3)c(F)c2)cc1F
IC50 [1]: 69.2 nM

Fc1cc(-c2ccc3c(c2)OCCO3)ccc1CO[C@H]1C[C@@H](N=C=S)C1
concentration at 0.25 h [2]: 12 ng/g
IC50 [1]: 11.8 nM
Ratio [3]: 2.43 10^5/M/s
concentration at 0.25 h [4]: 168 ng/mL
concentration at 0.5 h [5]: 12 ng/mL
concentration at 1 h [6]: 7 ng/mL

COc1ccc(-c2ccc(CN3CC(N=C=S)C3)c(F)c2)cc1F
IC50 [1]: 176 nM

S=C=N[C@H]1C[C@@H](OCc2ccc(-c3ccccc3)cc2)C1
IC50 [1]: 93 nM
Ratio [3]: 7.23 10^6/M/s
half-life at 1 µM [7]: 16.1 min
half-life at 1 µM [8]: 19.6 min
half-life at 1 µM [9]: 14.4 min

COc1ccc(-c2ccc(OC(=O)N[C@H]3C[C@@H](N=C=S)C3)cc2)cc1
IC50 [1]: 7 nM
half-life at 1 µM [7]: 6.4 min
half-life at 1 µM [8]: 5 min
half-life at 1 µM [9]: 6.2 min

COc1ccc(-c2ccc(CO[C@H]3CC[C@@H](N=C=S)C3)nc2)cc1F (single isomer, unassigned)
IC50 [1]: 1450 nM

COc1ccc(-c2ccc(C(=O)N[C@]34C[C@](N=C=S)(C3)C4)c(F)c2)cc1
IC50 [1]: 1230 nM

COc1ccc(-c2ccc(C(=O)N[C@H]3C[C@@H](N=C=S)C3)nc2)cc1
concentration at 0.25 h [2]: 809 ng/g
IC50 [1]: 7.6 nM
inhibition [10]: inactive
concentration at 0.25 h [4]: 264 ng/mL
concentration at 0.5 h [5]: 12 ng/mL
concentration at 1 h [6]: 8 ng/mL

Fc1cc(-c2ccc3c(c2)OCC3)ccc1CO[C@H]1C[C@@H](N=C=S)C1
IC50 [1]: 59.3 nM

COc1ccc(-c2ccc(S(=O)(=O)N[C@H]3C[C@@H](N=C=S)C3)cc2)cc1
concentration at 0.25 h [2]: 1090 ng/g
IC50 [1]: 2.3 nM
inhibition [10]: inactive
concentration at 0.25 h [4]: 164 ng/mL
concentration at 0.5 h [5]: 20 ng/mL
concentration at 1 h [6]: 20 ng/mL

COc1ccc(CCCCCC(=O)N[C@H]2C[C@@H](N=C=S)C2)cc1
IC50 [1]: 22.5 nM

COc1ccc(-c2ccc(CO[C@H]3C[C@@H](N=C=S)C3)nc2)nc1
IC50 [1]: 30.4 nM

COc1ccc(-c2ccc(CO[C@H]3CC[C@@H](N=C=S)CC3)cc2)cc1F
IC50 [1]: 386 nM

COc1ccc(-c2ccc(COC3C[C@@H](N=C=S)C3(C)C)nc2)cc1F (single isomer, unassigned)
IC50 [1]: 246 nM

COc1ccc(-c2ccc(CO[C@]3(C)C[C@H](N=C=S)C3)c(F)c2)cc1F
IC50 [1]: 480 nM

COc1ccc(-c2ccc3c(c2)CCN([C@H]2C[C@@H](N=C=S)C2)C3)cc1F
IC50 [1]: 89 nM

COc1ccc(-c2cc(CO[C@H]3C[C@@H](N=C=S)C3)on2)cc1
IC50 [1]: 43.6 nM

COc1ccc(-c2ccc3c(c2)CN([C@H]2C[C@@H](N=C=S)C2)C3)cc1F
IC50 [1]: 74.2 nM

Cn1cc(-c2ccc(CO[C@H]3C[C@@H](N=C=S)C3)c(F)c2)cn1
IC50 [1]: 517 nM

COc1cnc(-c2ccc(CO[C@H]3C[C@@H](N=C=S)C3)[n+]([O-])c2)cc1F
IC50 [1]: 23.5 nM

Fc1cc(-c2ccc3c(c2)OCO3)ccc1CO[C@H]1C[C@@H](N=C=S)C1
concentration at 0.25 h [2]: 14 ng/g
IC50 [1]: 8.8 nM
Ratio [3]: 3.44 10^5/M/s
half-life at 1 µM [7]: 3.3 min
half-life at 1 µM [8]: 6.5 min
half-life at 1 µM [9]: 2.4 min
concentration at 0.25 h [4]: 244 ng/mL
concentration at 0.5 h [5]: 31 ng/mL
concentration at 1 h [6]: 13 ng/mL

COc1ccc(N2CCC(C(=O)N[C@H]3C[C@@H](N=C=S)C3)CC2)cc1
IC50 [1]: 137 nM

COc1cccc(-c2ccc(CO[C@H]3C[C@@H](N=C=S)C3)cc2)c1
IC50 [1]: 22 nM
Ratio [3]: 2.24 10^6/M/s

COc1ccc(C2CC(C(=O)N[C@H]3C[C@@H](N=C=S)C3)C2)cc1 (stereo partly drawn)
IC50 [1]: 55.9 nM

COc1cc(-c2ccc(CO[C@H]3C[C@@H](N=C=S)C3)c(F)c2)ccc1F
IC50 [1]: 155 nM

S=C=N[C@H]1C[C@H](OCc2ccc(-c3ccccc3)cc2)C1
IC50 [1]: 4300 nM

Fc1cc(-c2cccc(C(F)(F)F)c2)ccc1CO[C@H]1C[C@@H](N=C=S)C1
concentration at 0.25 h [2]: 810 ng/g
IC50 [1]: 67.2 nM
half-life at 1 µM [7]: 16 min
half-life at 1 µM [8]: 17.9 min
half-life at 1 µM [9]: 13.2 min
concentration at 0.25 h [4]: 1010 ng/mL
concentration at 0.5 h [5]: 19 ng/mL
concentration at 1 h [6]: 331 ng/mL

COc1ccc(-c2ccc(C(=O)N[C@H]3C[C@@H](N=C=S)C3)nc2)cc1F
concentration at 0.25 h [2]: 690 ng/g
IC50 [1]: 26.6 nM
inhibition [10]: inactive
half-life at 1 µM [7]: 13 min
half-life at 1 µM [8]: 8.6 min
half-life at 1 µM [9]: 14 min
concentration at 0.25 h [4]: 264 ng/mL
concentration at 0.5 h [5]: 11 ng/mL
concentration at 1 h [6]: 8 ng/mL

COc1ccc(CCCC(=O)N[C@H]2C[C@@H](N=C=S)C2)cc1
IC50 [1]: 62 nM

COc1ccc(-c2ccc(S(=O)(=O)N[C@H]3C[C@@H](N=C=S)C3)nc2)cc1
concentration at 0.25 h [2]: 1150 ng/g
IC50 [1]: 6.3 nM
inhibition [10]: inactive
concentration at 0.25 h [4]: 126 ng/mL
concentration at 0.5 h [5]: 3 ng/mL
concentration at 1 h [6]: 2 ng/mL

FC1(F)Oc2ccc(-c3ccc(CO[C@H]4C[C@@H](N=C=S)C4)nc3)cc2O1
IC50 [1]: 171 nM

Fc1cc(-c2cccc(OCc3ccccc3)c2)ccc1CO[C@H]1C[C@@H](N=C=S)C1
IC50 [1]: 99.8 nM

COc1ccc(-c2ccc(S(=O)(=O)N[C@H]3C[C@@H](N=C=S)C3)cc2)cc1F
IC50 [1]: 3.2 nM
inhibition [10]: inactive
half-life at 1 µM [7]: 8 min
half-life at 1 µM [8]: 6 min
half-life at 1 µM [9]: 6 min

COc1ccc(-c2ccc3c(c2)CN([C@H]2C[C@@H](N=C=S)C2)CC3)cc1F
IC50 [1]: 356 nM

COc1ccc(-c2ccc(C(C)O[C@H]3C[C@@H](N=C=S)C3)c(F)c2)cc1F (stereo partly drawn)
IC50 [1]: 14.6 nM

COc1ccc(Oc2ccc(C(=O)N[C@H]3C[C@@H](N=C=S)C3)cc2)cc1
IC50 [1]: 1420 nM

COc1ccc(-c2ccc(CO[C@H]3C[C@@H](N=C=S)C3)c(F)c2)cc1OC
IC50 [1]: 58.9 nM
Ratio [3]: 7.97 10^5/M/s

CN(Cc1ccc(-c2ccccc2)cc1)[C@H]1C[C@@H](N=C=S)C1
IC50 [1]: 1920 nM
half-life at 1 µM [7]: 14.7 min
half-life at 1 µM [8]: 4.4 min
half-life at 1 µM [9]: 5.1 min

COc1ccc(-c2cnc(C(=O)N[C@H]3C[C@@H](N=C=S)C3)cn2)cc1
IC50 [1]: 853 nM

COc1ccc(-c2cc(C(=O)N[C@H]3C[C@@H](N=C=S)C3)on2)cc1
IC50 [1]: 91.5 nM

Cc1ccc(-c2ccc(CO[C@H]3C[C@@H](N=C=S)C3)cc2)cc1
IC50 [1]: 26 nM
Ratio [3]: 2.04 10^6/M/s

COc1ccc(-c2noc(CO[C@H]3C[C@@H](N=C=S)C3)n2)cc1
IC50 [1]: 493 nM

Cc1ccc(-c2ccc(CO[C@H]3C[C@H](N=C=S)C3)cc2)cc1
IC50 [1]: 580 nM

S=C=N[C@H]1C[C@@H](OCc2ccc(-c3ccc4occc4c3)cn2)C1
IC50 [1]: 8.3 nM
inhibition [11]: 55.8%

COc1ccc(C23CC(C(=O)N[C@H]4C[C@@H](N=C=S)C4)(C2)C3)cc1
IC50 [1]: 128 nM

COc1ccc(-c2ccc(O[C@H]3C[C@@H](N=C=S)C3)cc2)cc1F
IC50 [1]: 35.9 nM
